Read-outs that look alike come from different tables or passages of the source.
Tests used:
MM1.S cells = assay: Cell viability assay (MTS assay); type: cell-based
Procedure: Cell Viability Assay 1. Cell Line
The multiple myeloma cell line MM1.S was obtained from the ATCC.
Eight thousand MM1.S cells per well were seeded in tissue culture-treated 96-well plate (Nunc) and incubated overnight.
Each well had the same DMSO concentration of 0.05%.
The effects of compounds on cell viability were assessed using CellTiter 96®A Queous One solution Reagent (Promega; G3580).
After being treated with various compounds for 72 hrs, cells in the 96-well plate were centrifuged 1000 rpm for 3 minutes, and 180 ul supernatant were removed from each well. Cells were incubated with 20 ul CellTiter 96®A Queous One solution Reagent and put into incubator with 5% CO2. at 37° C. for an additional 4 hrs. The absorbance was measured at 490 nm with Automatic Microplate reader (Infinite M1000 pro, Tecan). […] Four sets of experiments for each drug combinations were carried out. Cell viability (Percentage of Cell Survival) was calculated by the following formula: cell viability (%)=(average absorbance of treated group-average absorbance of blank)/(average absorbance of untreated group−average absorbance of blank)×100%. IC50 values were calculated using Prism software.

[1] = Stability study (three storage/solution conditions, by RP-HPLC); type: physicochemical; design: key to Stability, Room Temp Dry / Stability, 30° C./65% Humidity / Stability, 37° C. H2O/pH 7.4: “+” meaning stable; “−” meaning quickly degradable; details: for Stability, Room Temp Dry: room temperature (20° C.) under inert dry gas, determined by RP-HPLC; for Stability, 30° C./65% Humidity: sealed with double bags in stability chamber
Procedure: Compounds were tested for their stability, under three different conditions (see Table 2), by the following procedures: • 1. Room Temperature and Dry: compounds were left at the room temperature (20° C.) under inert dry gas; • 2. 30° C. and 65% Humidity: compounds sealed with double bags were put into a stability chamber. Temperature was set at 30° C. while the humidity was controlled at 65%. • 3. 37° C. pH=7.4 solution: compounds were dissolved in PBS solution and then the entire solution was submerged under a 37° C. water bath.

[2] = MM1.S cells, 72 hrs treatment, MTS assay
[3] = MM1.S cells, 72 hrs treatment, MTS assay, n=4, read-out: IC50
[4] = dissolved in PBS solution, 37° C. water bath, RP-HPLC
[5] = Homo sapiens, MM1.S, 72 h, MM1.S cells, 72 hrs treatment, MTS assay, n=4, read-out: IC50

Row | SMILES | Cytotoxic effects on MM1.S cells (in words) (MM1.S cells; [2]) | IC50 (MM1.S cells; [3]) | Stability, Room Temp Dry [1] | Stability, 37° C. H2O/pH 7.4 [1, 4] | Stability, 30° C./65% Humidity ([1]; RP-HPLC) | IC50 (MM1.S cells; [5]) | IC50 (MM1.S cells; Homo sapiens, MM1.S, 72 h) | Stability, 37° C. H2O/pH 7.4 (result in words) [1, 4]
1 | CC(C)C[C@H](NC(=O)[C@H](Cc1ccccc1)NC(=O)c1cnccn1)B(O)O [Bortezomib, reference compound] | strong cytotoxic effects | 1.76 nM |  |  |  |  |  | 
2 | CC(C)C[C@H](NC(=O)[C@H](Cc1ccccc1)NC(=O)c1cnccn1)B(O)O [HL01-0, [(1R)-3-methyl-1-[[(2S)-1-oxo-3-phenyl-2[(pyrazinylcarbonyl)amino]propyl]amino]butyl] boronic acid, reference compound] |  |  | − |  |  |  |  | 
3 | CC(C)C[C@H](NC(=O)[C@H](Cc1ccccc1)NC(=O)c1cnccn1)[B-]12OC(=O)C[N+]1(C)CC(=O)O2 (stereo partly drawn) [HL01-11] | strong cytotoxic effects | 1.62 nM | + | + | + | ~2 nM |  | 
4 | CC(C)C[C@H](NC(=O)CNC(=O)c1cc(Cl)ccc1Cl)[B-]12OC(=O)C[N+]1(C)CC(=O)O2 (stereo partly drawn) [HL01-15] | weaker than the other compounds |  | + | + | + |  | 6.85 nM | 
5 | CC(C)C[C@H](NC(=O)CNC(=O)c1cc(Cl)ccc1Cl)B(O)O [HL01-17] |  |  | + |  | − | 9.45 nM |  | Decompose Instant

From patent US10144761B2, “Chiral specific boron-containing compounds and their use in treating cancer or amyloidosis” (HANLIN SCIENTIFIC, INC., priority 2015, dated 2018)
